Tested on: strains of Enterobacteriaceae producing various carbapenemases (class A, D and B; 104 strains)
Experiment: Antibiotics potentiation by Compound 27 (MIC; meropenem, doripenem, ertapenem, cefepime)
Format: cell-based
Conditions: + 27 = with Compound 27 at fixed 4 μg/ml

COc1ccc2c(c1C(=O)O)OB(O)C(Sc1nnc(N)s1)C2 (centres unmarked) [D + 27]
MIC (strain CF1012 Citrobacter freundii (KPC-2)): X (MIC of less than 1 μg/mL) | MIC (strain CF1021 Citrobacter freundii (CMY-type; VIM-1)): X (MIC of less than 1 μg/mL) | MIC (strain CF1022 Citrobacter freundii (SHV-12(2be), TEM-OSBL(2b); IMP-8)): X (MIC of less than 1 μg/mL) | MIC (strain CF1023 Citrobacter freundii (SHV-12(2be), TEM-OSBL(2b); CTX-M-3; CMY-34; NDM-1)): X (MIC of less than 1 μg/mL) | MIC (strain CL1080 Enterobacter cloacae (IMP-1)): X (MIC of less than 1 μg/mL) | MIC (strain EA1019 Enterobacter aerogenes (SHV-5, VIM-1)): X (MIC of less than 1 μg/mL) | MIC (strain EC1007 Escherichia coli (KPC-3)): X (MIC of less than 1 μg/mL) | MIC (strain EC1061 Escherichia coli (NDM-1, CMY-6)): X (MIC of less than 1 μg/mL) | MIC (strain EC1062 Escherichia coli (OXA-48, CTX-M-15)): X (MIC of less than 1 μg/mL) | MIC (strain EC1064 Escherichia coli (NDM-1, CMY-6, CTX-M-15)): Y (MIC of 1 μg/mL to 10 μg/mL) | MIC (strain EC1065 Escherichia coli (IMP-1)): X (MIC of less than 1 μg/mL) | MIC (strain EC1068 Escherichia coli (VIM-1)): X (MIC of less than 1 μg/mL) | MIC (strain EC1069 Escherichia coli (CTX-M-27; NDM-1)): X (MIC of less than 1 μg/mL) | MIC (strain EC1070 Escherichia coli (TEM-OSBL(2b); CMY-42; NDM-5)): X (MIC of less than 1 μg/mL) | MIC (strain EC1072 Escherichia coli (CTX-M-3; NDM-1)): X (MIC of less than 1 μg/mL) | MIC (strain ECL1004 Enterobacter cloacae (NMC-A)): X (MIC of less than 1 μg/mL) | MIC (strain ECL1026 Enterobacter cloacae (KPC-2, TEM-1)): X (MIC of less than 1 μg/mL) | MIC (strain ECL1036 Enterobacter cloacae (KPC-3, TEM-1)): X (MIC of less than 1 μg/mL) | MIC (strain ECL1045 Enterobacter cloacae (VIM-1)): Y (MIC of 1 μg/mL to 10 μg/mL) | MIC (strain ECL1055 Enterobacter cloacae (KPC-3, TEM)): X (MIC of less than 1 μg/mL) | MIC (strain ECL1057 Enterobacter cloacae (NDM-1, TEM-1, CTX-M-15)): Z (MIC of greater than 10 μg/mL) | MIC (strain ECL1058 Enterobacter cloacae (KPC-3, SHV-11, TEM-1)): X (MIC of less than 1 μg/mL) | MIC (strain ECL1059 Enterobacter cloacae (KPC-3, SHV-12, TEM-1)): X (MIC of less than 1 μg/mL) | MIC (strain ECL1061 Enterobacter cloacae (KPC-3, Hyper AmpC expression)): X (MIC of less than 1 μg/mL) | MIC (strain ECL1082 Enterobacter cloacae (VIM-1)): X (MIC of less than 1 μg/mL) | MIC (strain ECL1084 Enterobacter cloacae (CTX-M-15; ACT-16; NDM-1)): X (MIC of less than 1 μg/mL) | MIC (strain ECL1085 Enterobacter cloacae (SHV-31(2be), TEM-1(2b); CTX-M-15; NDM-1)): X (MIC of less than 1 μg/mL) | MIC (strain ECL1086 Enterobacter cloacae (VIM-31, OXA-48(c))): X (MIC of less than 1 μg/mL) | MIC (strain ECL1087 Enterobacter cloacae (VIM-1)): X (MIC of less than 1 μg/mL) | MIC (strain ECL1088 Enterobacter cloacae (TEM-1(2b); CTX-M-14; ACT-type; VIM-1)): X (MIC of less than 1 μg/mL) | MIC (strain ECL1089 Enterobacter cloacae (ACT-type; IMP-1)): Y (MIC of 1 μg/mL to 10 μg/mL) | MIC (strain ECL1090 Enterobacter cloacae (TEM-1(2b); CTX-M-22; ACT-type; IMP-8)): X (MIC of less than 1 μg/mL) | MIC (strain ECL1091 Enterobacter cloacae (VIM-1)): Y (MIC of 1 μg/mL to 10 μg/mL) | MIC (strain ECL1092 Enterobacter cloacae (TEM-OSBL(2b); ACT-32; VIM-1)): X (MIC of less than 1 μg/mL) | MIC (strain ECL1093 Enterobacter cloacae (TEM-OSBL(2b); ACT-32; VIM-1)): X (MIC of less than 1 μg/mL) | MIC (strain ECL1094 Enterobacter cloacae (VIM-1)): X (MIC of less than 1 μg/mL) | MIC (strain ECL1096 Enterobacter cloacae (CMY-4, VIM-4, OXA-48(c))): X (MIC of less than 1 μg/mL) | MIC (strain ECL1097 Enterobacter cloacae (SHV-31(2be), TEM-OSBL(2b); CTX-M-15; ACT-31; NDM-1)): X (MIC of less than 1 μg/mL) | MIC (strain ECL1098 Enterobacter cloacae (TEM-OSBL(2b); DHA-1; ACT-16; NDM-1)): X (MIC of less than 1 μg/mL) | MIC (strain KP1001 Klebsiella pneumoniae (KPC TEM SHV)): Y (MIC of 1 μg/mL to 10 μg/mL) | MIC (strain KP1002 Klebsiella pneumoniae (KPC TEM SHV)): X (MIC of less than 1 μg/mL) | MIC (strain KP1003 Klebsiella pneumoniae (KPC TEM SHV)): X (MIC of less than 1 μg/mL) | MIC (strain KP1004 Klebsiella pneumoniae (KPC-2, TEM-1, SHV-11)): X (MIC of less than 1 μg/mL) | MIC (strain KP1008 Klebsiella pneumoniae (KPC-2)): X (MIC of less than 1 μg/mL) | MIC (strain KP1014 Klebsiella pneumoniae (VIM-1, TEM, SHV)): Y (MIC of 1 μg/mL to 10 μg/mL) | MIC (strain KP1054 Klebsiella pneumoniae (VIM-1, SHV-11)): X (MIC of less than 1 μg/mL) | MIC (strain KP1059 Klebsiella pneumoniae (VIM-1, SHV-11)): Y (MIC of 1 μg/mL to 10 μg/mL) | MIC (strain KP1061 Klebsiella pneumoniae (KPC-3, SHV-11, TEM-1)): X (MIC of less than 1 μg/mL) | MIC (strain KP1064 Klebsiella pneumoniae (KPC-2, SHV-11, TEM-1)): Y (MIC of 1 μg/mL to 10 μg/mL) | MIC (strain KP1065 Klebsiella pneumoniae (VIM-1, SHV-11)): X (MIC of less than 1 μg/mL) | MIC (strain KP1070 Klebsiella pneumoniae (KPC-2, SHV-11, TEM-1)): X (MIC of less than 1 μg/mL) | MIC (strain KP1074 Klebsiella pneumoniae (KPC-3, SHV-11, TEM)): Y (MIC of 1 μg/mL to 10 μg/mL) | MIC (strain KP1081 Klebsiella pneumoniae (NDM-1, TEM-1, SHV-11, CMY-6, CTX-M-15)): X (MIC of less than 1 μg/mL) | MIC (strain KP1082 Klebsiella pneumoniae (KPC-2, SHV-1)): X (MIC of less than 1 μg/mL) | MIC (strain KP1083 Klebsiella pneumoniae (KPC-3, SHV-1, TEM-1)): X (MIC of less than 1 μg/mL) | MIC (strain KP1084 Klebsiella pneumoniae (KPC-3, SHV-11, TEM-1)): Y (MIC of 1 μg/mL to 10 μg/mL) | MIC (strain KP1086 Klebsiella pneumoniae (OXA-48, CTX-M-15, TEM, SHV)): Y (MIC of 1 μg/mL to 10 μg/mL) | MIC (strain KP1087 Klebsiella pneumoniae (KPC-2, CTX-M-15, SHV-11, TEM-1)): Y (MIC of 1 μg/mL to 10 μg/mL) | MIC (strain KP1088 Klebsiella pneumoniae (KPC-3, SHV-11, TEM-1)): X (MIC of less than 1 μg/mL) | MIC (strain KP1089 Klebsiella pneumonias (OXA-181, CTX-M-15, TEM, SHV)): X (MIC of less than 1 μg/mL) | MIC (strain KP1095 Klebsiella pneumoniae (KPC-2 TEM-1 SHV-1)): X (MIC of less than 1 μg/mL) | MIC (strain KP1096 Klebsiella pneumoniae (KPC-2 TEM-181 SHV-11)): X (MIC of less than 1 μg/mL) | MIC (strain KP1097 Klebsiella pneumonias (IMP-1)): X (MIC of less than 1 μg/mL) | MIC (strain KP1098 Klebsiella pneumoniae (IMP-26)): Y (MIC of 1 μg/mL to 10 μg/mL) | MIC (strain KP1104 Klebsiella pneumoniae (KPC TEM)): X (MIC of less than 1 μg/mL) | MIC (strain KP1105 Klebsiella pneumoniae (KPC TEM SHV)): X (MIC of less than 1 μg/mL) | MIC (strain KP1159 Klebsiella pneumoniae (SHV-1(2b); CTX-M-15; IMP-4)): X (MIC of less than 1 μg/mL) | MIC (strain KP1160 Klebsiella pneumoniae (SHV-28(2be); CTX-M-15; IMP-26)): X (MIC of less than 1 μg/mL) | MIC (strain KP1161 Klebsiella pneumoniae (NDM-1)): X (MIC of less than 1 μg/mL) | MIC (strain KP1164 Klebsiella pneumoniae (SHV-12(2be); VIM-1)): X (MIC of less than 1 μg/mL) | MIC (strain KP1165 Klebsiella pneumoniae (SHV-11(2b); CTX-M-15; VIM-27)): Z (MIC of greater than 10 μg/mL) | MIC (strain KP1166 Klebsiella pneumoniae (SHV-5(2be); VIM-26)): Y (MIC of 1 μg/mL to 10 μg/mL) | MIC (strain KP1167 Klebsiella pneumoniae (SHV-12(2be); VIM-1)): X (MIC of less than 1 μg/mL) | MIC (strain KP1169 Klebsiella pneumoniae (SHV-11(2b); VIM-1)): X (MIC of less than 1 μg/mL) | MIC (strain KP1170 Klebsiella pneumoniae (SHV-11(2b); CTX-M-15; NDM-1)): X (MIC of less than 1 μg/mL) | MIC (strain KP1172 Klebsiella pneumoniae (SHV-31(2be); DHA-1; VIM-1)): X (MIC of less than 1 μg/mL) | MIC (strain KP1173 Klebsiella pneumoniae (TEM-33(2br); CTX-M-15; IMP-1)): X (MIC of less than 1 μg/mL) | MIC (strain KP1174 Klebsiella pneumoniae (CTX-M-14; IMP-1)): X (MIC of less than 1 μg/mL) | MIC (strain KP1175 Klebsiella pneumoniae (SHV-OSBL(2b); VIM-1)): X (MIC of less than 1 μg/mL) | MIC (strain KP1177 Klebsiella pneumoniae (SHV-OSBL(2b), TEM-OSBL(2b); CTX-M-15; NDM-1)): X (MIC of less than 1 μg/mL) | MIC (strain KP1178 Klebsiella pneumoniae (SHV-OSBL(2b;) TEM-OSBL(2b); CTX-M-15; NDM-1)): X (MIC of less than 1 μg/mL) | MIC (strain KP1179 Klebsiella pneumoniae (SHV-12(2be), TEM-OSBL(2b); CTX-M-15; NDM-7)): X (MIC of less than 1 μg/mL) | MIC (strain KP1180 Klebsiella pneumoniae (SHV-OSBL(2b), TEM-OSBL(2b); CTX-M-15; DHA-1; IMP-26)): X (MIC of less than 1 μg/mL) | MIC (strain KP1181 Klebsiella pneumoniae (SHV-OSBL(2b); CTX-M-15; IMP-26)): X (MIC of less than 1 μg/mL) | MIC (strain KP1183 Klebsiella pneumoniae (SHV-OSBL(2b), TEM-OSBL(2b); CTX-M-15; NDM-1)): X (MIC of less than 1 μg/mL) | MIC (strain KP1184 Klebsiella pneumoniae (SHV-OSBL(2b); IMP-1)): X (MIC of less than 1 μg/mL) | MIC (strain KP1185 Klebsiella pneumoniae (SHV-OSBL(2b), TEM-OSBL(2b); IMP-4)): X (MIC of less than 1 μg/mL) | MIC (strain KP1186 Klebsiella pneumoniae (CTX-M-15; NDM-1)): X (MIC of less than 1 μg/mL) | MIC (strain KP1187 Klebsiella pneumoniae (SHV-55(2be), TEM-OSBL(2b); CTX-M-15; NDM-1)): X (MIC of less than 1 μg/mL) | MIC (strain KP1188 Klebsiella pneumoniae (SHV-OSBL(2b); CTX-M-15; NDM-1)): Y (MIC of 1 μg/mL to 10 μg/mL) | MIC (strain KP1189 Klebsiella pneumoniae (TEM-OSBL(2b); CTX-M-15; CTX-M-27; NDM-1)): X (MIC of less than 1 μg/mL) | MIC (strain KPM1123 Klebsiella pneumoniae (KPC-2 TEM SHV)): X (MIC of less than 1 μg/mL) | MIC (strain KPM1202 Klebsiella pneumoniae (KPC SHV TEM)): X (MIC of less than 1 μg/mL) | MIC (strain KPM1203 Klebsiella pneumoniae (KPC SHV TEM)): X (MIC of less than 1 μg/mL) | MIC (strain KPM1344 Klebsiella pneumoniae (VIM-1)): X (MIC of less than 1 μg/mL) | MIC (strain KPM1345 Klebsiella pneumoniae (VIM-1 SHV)): X (MIC of less than 1 μg/mL) | MIC (strain KPM1347 Klebsiella pneumoniae (NDM-1 SHV CTX-M-15)): X (MIC of less than 1 μg/mL) | MIC (strain KX1017 Klebsiella oxytoca (KPC-2, OXA-2, SHV-30)): X (MIC of less than 1 μg/mL) | MIC (strain KX1018 Klebsiella oxytoca (KPC-2, SHV-40, OXY-1)): X (MIC of less than 1 μg/mL) | MIC (strain KX1019 Klebsiella oxytoca (KPC-2, OXA-2)): X (MIC of less than 1 μg/mL) | MIC (strain PM1024 Proteus mirabilis (TEM-1(2b); CMY-16; VIM-1)): X (MIC of less than 1 μg/mL) | MIC (strain PM1026 Proteus mirabilis (DHA-1; IMP-26)): Y (MIC of 1 μg/mL to 10 μg/mL) | MIC (strain PM1027 Proteus mirabilis (VIM-5)): X (MIC of less than 1 μg/mL) | MIC (strain SM1023 Serratia marcescens (VIM-4)): Y (MIC of 1 μg/mL to 10 μg/mL)

Source: patent US10206937B2, “Boronic acid derivatives and therapeutic uses thereof” (Qpex Biopharma, Inc., priority 2014, dated 2019)
